Results taken from patent US6358921B1, “Antimicrobial peptide compositions and method” (priority 1996, dated 2002).

Experiments:
[1] = test system: P. aeruginosa H187; format: cell-based, Pseudomonas aeruginosa; settings: H187
Source text: (§1) The following bacterial strains were utilized: Escherichia coli UB1005 (wt) and its antibiotic supersusceptible derivative DC2 (Clark, 1984); Excherichia coli SC9251 and its polymixin B rasistant mutant pmrA SC9252 (Peterson, et al., 1987) Pseudomonas aeruginosa H187 (wt) (Angus, et al., 1987) and its antibiotic-sensitive derivative H188 (Zimmerman, W, Antimicrob. Agents Chemother. 18: 94-100, 1980); methicillin sensitive Staphylococcus aureus K147 (Kreiswirth, et al., 1983); Staphylococcus aureus SAP0017, a methicillin resistant clinical isolate from Dr. A. Chow (University of British Columia); Bacillus subtilis, an environmental wt lab strain. Enterococcus faecalis are ATCC 29212 cells and Staphylococcus epidermidis was a clinical isolate from Dr. D. Speert (University of British Columbia). Antifungal activity was tested using a clinical lab isolate of Candida albicans. Salmonella typhinurium C57 and C610 (Fields, P.I., et al., Science 243: 1059-1062 (1989) Corynebacterium xerosis was an environmental isolate (University of British Columbia).
(§2) It is now apparent that agar-based assays severely underestimate antifungal activity as well as activity against gram negative microorganisms (Kondejewski, et al., 1996). Consequently, in the studies reported herein, a liquid-broth method was used to measure the antibiotic properties of the peptides. […] Briefly, cells were grown overnight at 37° C. in LB and diluted in the same medium. Serial dilutions of antibiotics were added to the microtitre plates in a volume of 100 μL followed by 10 μL of bacteria to give a final inoculum of 5×10^5 CFU/mL. Plates were incubated at 37° C. overnight and MICs determined as the lowest antibiotic concentration that inhibited growth.
(§3) The results from antimicrobial and hemolytic assays are combined to provide a “Therapeutic Index” (TI) for each peptide with respect to individual microorganisms. As reported herein, the TI is calculated as the hemolytic activity divided by the antimicrobial activity. The TI thus is a measure of specificity of the particular peptide for microbial membranes as opposed to human blood cell membranes. In the present studies, antimicrobial activities are reported as minimum inhibitory concentrations (MIC)—the lowest concentration of peptide (μg/ml) found to inhibit growth of the particular microbe. Hemolytic activity is reported as the concentration of peptide that effected complete lysis of blood cells after four hours. Thus, in the context of the present invention high TI values indicate microbial specificity and relative lack of toxicity.

[2] = test system: P. aeruginosa H188; format: cell-based, Pseudomonas aeruginosa; settings: H188
Source text: as §1
as §2, with “growth. […]” for “growth.”

[3] = test system: E. coli UB1005; format: cell-based, Escherichia coli; settings: UB1005
Source text: as §1
as §2, with “growth. […]” for “growth.”

[4] = test system: E. coli DC2; format: cell-based, Escherichia coli; settings: DC2
Source text: as §1, §2, §3

[5] = test system: S. typhinurium C587; format: cell-based, Salmonella typhinurium
Source text: as §1
as §2, with “growth. […]” for “growth.”

[6] = test system: S. typhinurium C610; format: cell-based, Salmonella typhinurium
Source text: as §1
as §2, with “growth. […]” for “growth.”

[7] = test system: S. aureus K147; format: cell-based, Staphylococcus aureus
Source text: as §1, §2, §3

[8] = test system: S. aureus SAP0017; format: cell-based, Staphylococcus aureus
Source text: as §1, §2, §3

[9] = test system: S. epidermidis; format: cell-based, Staphylococcus epidermidis
Source text: as §1
as §2, with “growth. […]” for “growth.”

[10] = test system: B. subtilis; format: cell-based, Bacillus subtilis
Source text: as §1
as §2, with “growth. […]” for “growth.”

[11] = test system: E. faecalis; format: cell-based, Enterococcus faecalis
Source text: as §1
as §2, with “growth. […]” for “growth.”

[12] = test system: C. xeroses; format: cell-based, Corynebacterium xerosis
Source text: as §1
as §2, with “growth. […]” for “growth.”

[13] = test system: C. Albicans; format: cell-based, Candida albicans
Source text: as §1
as §2, with “growth. […]” for “growth.”

[14] = Displacement of dansyl-polymyxin from LPS; format: binding, P. aeruginosa; settings: read-out: LPS binding affinity: peptide concentration to displace 50% of dansyl-polymyxin B from LPS; Tables 1, 4, 7
Source text: In order to determine whether ring size affects the interaction between the peptide and bacterial membranes, we studied the interaction between the GS ring analogs and bacterial lipopolysaccharide (LPS). It has been shown previously that dansyl-polymixin (DPX) is a good probe for cationic binding sites on both purified LPS as well as whole bacterial cells (Example 8; Moore, et al., 1986; Sawyer, et al., 1988; Hancock, 1981). […] The LPS binding activity of various GS analogs was investigated, as discussed above.
Dansyl-polymixin (DPX) displacement from P. aeruginosa LPS was measured as described (Moore, et al., 1986). Briefly, peptides were titrated into cuvettes containing 3 μg of LPS per mL and 2.5 μM dansyl-polymixin (approximately 90% saturation of LPS binding sites) in 1 mL of 5 mM sodium HEPES buffer, pH 7.0, and the decrease in fluorescence recorded. A plot of the inverse of the percent inhibition as a function of the inverse of inhibitor concentration gave a value for I50, the inhibitor concentration resulting in 50% displacement of dansyl-polymixin from LPS (−1/× intercept).

[15] = test system: human erythrocytes; test: Hemolytic activity; format: cell-based
Experimental: Serial dilutions of the peptides in saline were prepared in round bottom microtitre plates using 100 μL volumes. Red blood cells were diluted with saline to 1/25 packed volume of cells and 50 μL added to each well. Plates were incubated with rocking at 37° C., and the concentration required for complete lysis determined visually after 4 h.

Structure (SMILES)	Minimum Inhibitory Concentration (activity) [1] [µg/mL]	Minimum Inhibitory Concentration (activity) [2] [µg/mL]	Minimum Inhibitory Concentration (activity) [3] [µg/mL]	Minimum Inhibitory Concentration (activity) [4] [µg/mL]	Minimum Inhibitory Concentration (activity) [5] [µg/mL]	Minimum Inhibitory Concentration (activity) [6] [µg/mL]	Minimum Inhibitory Concentration (activity) [7] [µg/mL]	Minimum Inhibitory Concentration (activity) [8] [µg/mL]	Minimum Inhibitory Concentration (activity) [9] [µg/mL]	Minimum Inhibitory Concentration (activity) [10] [µg/mL]	Minimum Inhibitory Concentration (activity) [11] [µg/mL]	Minimum Inhibitory Concentration (activity) [12] [µg/mL]	Minimum Inhibitory Concentration (activity) [13] [µg/mL]	IC50 [14] [µM]	Hemolytic activity: peptide concentration for 100% lysis of human erythrocytes [15] [µg/mL]
CC(C)C[C@@H]1NC(=O)[C@H](CCCCN)NC(=O)[C@H](C(C)C)NC(=O)[C@@H]2CCCN2C(=O)[C@@H](Cc2ccc(O)cc2)NC(=O)[C@H](CC(C)C)NC(=O)[C@H](CCCCN)NC(=O)[C@H](C(C)C)NC(=O)[C@H](CCCCN)NC(=O)[C@H](CC(C)C)NC(=O)[C@H]2CCCN2C(=O)[C@@H](Cc2ccc(O)cc2)NC(=O)[C@H](C(C)C)NC(=O)[C@H](CCCCN)NC1=O [GS14P7]	200	100	200	6.2	>200	200	>200	>200	6.2	>200	6.2	1	25	18	–
CC(C)C[C@@H]1NC(=O)[C@H](CCCCN)NC(=O)[C@H](C(C)C)NC(=O)[C@H]2CCCN2C(=O)[C@@H](Cc2ccc(O)cc2)NC(=O)[C@H](CC(C)C)NC(=O)[C@H](CCCCN)NC(=O)[C@H](C(C)C)NC(=O)[C@H](CCCCN)NC(=O)[C@H](CC(C)C)NC(=O)[C@@H]2CCCN2C(=O)[C@@H](Cc2ccc(O)cc2)NC(=O)[C@H](C(C)C)NC(=O)[C@H](CCCCN)NC1=O [GS14P14]	>200	100	100	4	>200	>200	>200	>200	6.2	>200	6.2	1	25	20	–
CC(C)C[C@@H]1NC(=O)[C@H](CCCCN)NC(=O)[C@@H](C(C)C)NC(=O)[C@@H]2CCCN2C(=O)[C@@H](Cc2ccc(O)cc2)NC(=O)[C@H](CC(C)C)NC(=O)[C@H](CCCCN)NC(=O)[C@H](C(C)C)NC(=O)[C@H](CCCCN)NC(=O)[C@H](CC(C)C)NC(=O)[C@@H]2CCCN2C(=O)[C@@H](Cc2ccc(O)cc2)NC(=O)[C@H](C(C)C)NC(=O)[C@H](CCCCN)NC1=O [GS14V1]	60	3.1	6.2	3.1	50	6.2	100	50	3.1	50	1.5	1.5	5	41	–
CC(C)C[C@@H]1NC(=O)[C@H](CCCCN)NC(=O)[C@H](C(C)C)NC(=O)[C@@H]2CCCN2C(=O)[C@H](Cc2ccc(O)cc2)NC(=O)[C@H](CC(C)C)NC(=O)[C@H](CCCCN)NC(=O)[C@H](C(C)C)NC(=O)[C@H](CCCCN)NC(=O)[C@H](CC(C)C)NC(=O)[C@@H]2CCCN2C(=O)[C@@H](Cc2ccc(O)cc2)NC(=O)[C@H](C(C)C)NC(=O)[C@H](CCCCN)NC1=O [GS14Y13]	>200	100	100	3.1	>200	>200	>200	>200	9	>200	3.1	1	25	24	–
CC(C)C[C@@H]1NC(=O)[C@H](CCCCN)NC(=O)[C@H](C(C)C)NC(=O)[C@H](CCCCN)NC(=O)[C@@H]2CCCN2C(=O)[C@@H](Cc2ccc(O)cc2)NC(=O)[C@H](CCCCN)NC(=O)[C@H](CC(C)C)NC(=O)[C@H](CCCCN)NC(=O)[C@@H](C(C)C)NC(=O)[C@H](CCCCN)NC(=O)[C@@H]2CCCN2C(=O)[C@@H](Cc2ccc(O)cc2)NC(=O)[C@H](CCCCN)NC1=O [GS14invV2]	9	9	25	50	200	37	>200	–	100	>200	>200	6.2	200	71	800
